Source: patent US10301314B2, “Compounds and methods for the prevention and treatment of tumor metastasis and tumorigenesis” (The United States of America, as represented by the …, priority 2011, dated 2019)
Where two headings read alike, the source gives them in different places.

Key:
[1] = test system: PC3M cell line that stably expresses GFP-PTB to mark PNCs; assay: High content assay for PNC detection (reduction of PNC prevalence); assay type: cell-based, human; settings: PC3M GFP-PTB cells; for AC50 / IC50: Homo sapiens, PC-3M; for AC50: Table 3; for IC50 / PNC IC50(μM): Table 4, 16 hrs incubation
Excerpt: The quantitative output for this assay is the reduction of PNC prevalence. The PNC can be detected in living cells by the expression of a green fluorescent protein (GFP) tagged to the PNC localized protein, PTB. A PC3M cell line was used that stably expresses GFP-PTB to mark PNCs. This method eliminates the need for immunofluorescent staining.
The IN Cell Analyzer 1000 automated fluorescent imaging system (GE Healthcare, Piscataway, N.J.) was used for automated image acquisition. […] The instrument acquired images of each well in a 1536-well plate with a laser-based autofocus system. To score PNC prevalence in a high-content throughput, the Multi-Target Analysis (MTA) algorithm (GE Healthcare, Investigator v3.5) to identify individual cells and granules (PNCs) within these cells was used. The nucleus was segmented via a region growing method (50 μm^2 minimum area) with light shading and noise removal to allow “touching” nuclei to be separated. Granules in the nucleus (PNCs) were segmented using a multiscale top hat method, which measures granules of 1 to 2 μm in size and used a smart masking method to identify the boundaries of each segmented granule. The algorithm was optimized and validated using positive and negative controls (50 μM camptothecin and DMSO, respectively). In particular, the MTA algorithm allows for the identification of multiple subcellular compartments and organelles (or granules) within those compartments. In this instance, the algorithm's capability to identify objects within the same color channel that only differ in size or fluorescent intensity was utilized. Also, the algorithm allows for building complex hierarchical classification systems, using output measures within the algorithm to filter and define subpopulations. For this particular assay, PNC-positive cells were scored when 1 to 3 PNC granules were detected per nucleus. Cells that contained 0 granules were scored as PNC negative, and cells with >3 granules were assumed to be false positives (very few cells have more than 3 PNCs in one focus plane), and were also scored as PNC negative.

PC3M cells [2] = assay: Tumor cell migration/invasion assay through 3D fibrillar collagen (Iuvo Single Microchannel Plate); assay type: cell-based; settings: Homo sapiens, PC-3M, 120 h, 5 days
Method: High-content tumor cell migration assays in 3-dimensional extracellular matrices are powerful tools for modeling and understanding the biology of this critical step in the process of metastasis. However, most of the available methods are not amenable to the throughput required by studies of comparative pharmacology or small scale screening. For this reason, compounds were tested in BellBrook Labs™ automated high-content tumor cell invasion assays. A standard screening-sized plate with an array of embedded microchannels was designed and constructed from common thermoplastics.
PC3M cells were tested for invasion through 3D fibrillar collagen in the luvo Single Microchannel Plate, in the presence of varying levels of test compounds. Channels were prefilled with 820 nL of 3-dimensional type I collagen at 1 mg/mL, through the input port. Following gelation, 2,000 PC3M cells were seeded into the output port using growth media (RPMI+10% FBS with antibiotics) in a volume of 5 μL. Cells were incubated in a 37° C. incubator inside a humidified container to control evaporation (Bioassay dish, Corning). Media, including test compounds, was changed daily for 5 days. At the end of the assay, cells were fixed and stained with Hoechst 33342, then imaged with 4× objective under epifluorescence. Under these conditions, cells across the 140 μm height range of the microchannel can be reliably identified. Test compounds were serially diluted by a factor of 3 to produce 10 concentrations ranging from 50 or 100 μM to 2.5 nM. All assays were conducted in the presence of 0.1% DMSO. Four replicates were performed for all test concentrations. Each plate had 4 dose response curves, as well as 16 channels with no compound and 16 channels with 50 μM blebbistatin (positive control). Analysis was done by automatically cropping each image at the right edge of the channel and counting cells via the ‘count nuclei’ function on Metamorph (Molecular Devices). Non-linear regression analysis was performed with GraphPad Prism.

[3] = test system: PC3M reporter cell line stably expressing the PTB-GFP; assay: ATP quantitation assay (ATPLite); assay type: cell-based, human; settings: Table 4, PC3M cells, 24 hrs incubation; for IC50: Homo sapiens, PC-3M
Method: This follow-up assay was conducted to measure the effect of compounds on cell health by measuring ATP levels (ATPLite™). ATPLite™ is an ATP monitoring system based on firefly (Photinus pyralis) luciferase. The level of ATP in a metabolically active cell is a general marker for its viability. ATP levels are often reduced during necrosis or apoptosis. In this assay, the luciferase enzyme catalyzes the conversion of the added substrate D-luciferin to oxyluciferin and light with ATP. Thus, the emitted light is proportional to the ATP concentration. For this assay, the highly metastatic PC3M reporter cell line stably expressing the PTB-GFP was provided by Professor Sui Huang of Northwestern University. The media and cell culture reagents were purchased from Invitrogen (Carlsbad, Calif.), ATPLite™ came from PerkinElmer.

PC3M cells [4] = assay: Soft agar colony formation assay (anchorage independent growth); assay type: cell-based, human; settings: after 14 days; 3.8, 18.6 nM
Method: Compound 2 was tested for its ability to affect anchorage independent growth in a soft agar assay, a stringent method to detect malignant transformation of cells in vitro. […] The left hand side of FIG. 1 illustrates a histogram representing the number and size of PC3M soft agar colonies after 14 days of treatment with compound 2 at two different concentrations. A clear reduction of the number of colonies of PC3M cells was observed, particularly at a compound concentration of 18.6 nM. The right hand side of FIG. 1 illustrates two representative images taken at two different regions of the soft agar medium after treatment with DMSO (vehicle) (top row), compound 2 at 3.8 nM (middle row), and compound 2 at 18.6 nM (bottom row).

[5] = PC3M cells in output port, read-out: Proliferation output port IC50
[6] = PC3M cells, 3D type I collagen, read-out: Invasion cell # IC50

## N=c1c2c(-c3ccccc3)c(-c3ccccc3)n(Cc3ccccc3)c2ncn1C1CCOCC1 [Compound 1]
[1]
  AC50: 90 nM
  IC50: 30 nM
PC3M cells [2]; [5]
  IC50: 5.01 µM
PC3M cells [2]; [6]
  IC50: 3.16 µM
[3]
  IC50: 152 µM

## N=c1c2c(-c3ccccc3)c(-c3ccccc3)n(Cc3ccccc3)c2ncn1[C@H]1CC[C@H](O)CC1 [Compound 2, trans-4-(7-Benzyl-4-imino-5,6-diphenyl-4,7-dihydro-3H-pyrrolo[2,3-d]pyrimidin-3-yl)cyclohexanol]
[1]
  AC50: 400 nM
  IC50: 24 nM
PC3M cells [2]; [5]
  IC50: 3.98 µM
PC3M cells [2]; [6]
  IC50: 3.16 µM
[3]
  IC50: 19.2 µM
PC3M cells [4]
  cell viability in soft agar assay: no impact on cell viability
  number of PC3M soft agar colonies: dose dependent reduction in the number of colonies

## N=c1c2c(-c3ccccc3)cn(Cc3ccccc3)c2ncn1[C@@H]1CCCC[C@H]1N [Compound 117]
[1]
  PNC IC50(μM): inactive
[3]
  IC50: 96.1 µM

## N=c1c2c(-c3ccccc3)cn(Cc3ccccc3)c2ncn1CCCO [Compound 118]
[1]
  PNC IC50(μM): inactive
[3]
  IC50: 121 µM

## C[C@H]([C@@H](O)c1ccccc1)n1cnc2c(c(-c3ccccc3)cn2Cc2ccccc2)c1=N [Compound 119]
[1]
  PNC IC50(μM): inactive
[3]
  IC50: 121 µM

## N=c1c2c(-c3ccccc3)cn(Cc3ccccc3)c2ncn1CCCCO [Compound 120]
[1]
  PNC IC50(μM): inactive
[3]
  IC50: 241 µM

## COC(=O)c1ccc(Cn2cnc3c(c(-c4ccccc4)cn3Cc3ccccc3)c2=N)cc1 [Compound 121]
[1]
  PNC IC50(μM): inactive
[3]
  IC50: 121 µM

## N=c1c2c(-c3ccccc3)cn(Cc3ccccc3)c2ncn1C1CCOCC1 [Compound 122]
[1]
  PNC IC50(μM): inactive
[3]
  ATP IC50(μM): inactive

## COc1ccc(-c2c(-c3ccc(OC)cc3)n(Cc3ccccc3)c3ncn(CC4CCOCC4)c(=N)c23)cc1 [Compound 123]
[1]
  PNC IC50(μM): inactive
[3]
  IC50: 24.1 µM

## C#CCn1cnc2c(c(-c3ccccc3)cn2Cc2ccccc2)c1=N [Compound 124]
[1]
  PNC IC50(μM): inactive
[3]
  ATP IC50(μM): inactive

## N=c1c2c(-c3ccccc3)cn(Cc3ccccc3)c2ncn1CCCN1CCN(c2ccccc2)CC1 [Compound 125]
[1]
  PNC IC50(μM): inactive
[3]
  IC50: 30.4 µM

## N=c1c2c(-c3ccccc3)c(-c3ccccc3)n(Cc3ccccc3)c2ncn1CC1COC1 [Compound 126]
[1]
  PNC IC50(μM): inactive
[3]
  IC50: 96.1 µM

## N=c1c2c(-c3ccccc3)cn(Cc3ccccc3)c2ncn1CC1CCCO1 (stereo not drawn) [Compound 127]
[1]
  PNC IC50(μM): inactive
[3]
  IC50: 96.1 µM

## COC(=O)C[C@@H](C(=O)OC)n1cnc2c(c(-c3ccccc3)cn2Cc2ccccc2)c1=N [Compound 128]
[1]
  PNC IC50(μM): inactive
[3]
  ATP IC50(μM): inactive

## COc1ccc(-c2c(-c3ccc(OC)cc3)n(Cc3ccccc3)c3ncn(CC4COC4)c(=N)c23)cc1 [Compound 129]
[1]
  PNC IC50(μM): inactive
[3]
  ATP IC50(μM): inactive

## COc1ccc(CCn2cnc3c(c(-c4ccccc4)cn3Cc3ccccc3)c2=N)cc1OC [Compound 130]
[1]
  PNC IC50(μM): inactive
[3]
  IC50: 24.1 µM

## N=c1c2c(-c3ccccc3)cn(Cc3ccccc3)c2ncn1CCNCCO [Compound 131]
[1]
  PNC IC50(μM): inactive
[3]
  IC50: 121 µM

## COc1ccc(-c2c(-c3ccc(OC)cc3)n(Cc3ccccc3)c3ncn([C@H]4CC[C@@H](O)CC4)c(=N)c23)cc1 [Compound 132]
[1]
  PNC IC50(μM): inactive
[3]
  ATP IC50(μM): inactive

## N=c1c2c(-c3ccccc3)c(-c3ccccc3)n(CC3CC3)c2ncn1CC1CCOCC1 [Compound 134]
[1]
  PNC IC50(μM): inactive
[3]
  IC50: 60.7 µM

## COc1ccc(-c2c(-c3ccc(OC)cc3)n(Cc3ccccc3)c3ncn(CCCO)c(=N)c23)cc1 [Compound 135]
[1]
  PNC IC50(μM): inactive
[3]
  IC50: 30.4 µM

## N=c1c2c(-c3ccccc3)cn(Cc3ccccc3)c2ncn1CCN [Compound 136]
[1]
  PNC IC50(μM): inactive
[3]
  ATP IC50(μM): inactive

## OCCNc1ncnc2c1c(-c1ccccc1)c(-c1ccccc1)n2Cc1ccco1 [Compound 137]
[1]
  PNC IC50(μM): inactive
[3]
  ATP IC50(μM): inactive

## N=c1c2c(-c3ccccc3)cn(Cc3ccccc3)c2ncn1Cc1ccco1 [Compound 138]
[1]
  PNC IC50(μM): inactive
[3]
  IC50: 60.7 µM

## N=c1c2c(-c3ccccc3)cn(Cc3ccccc3)c2ncn1[C@H]1CC[C@H](O)CC1 [Compound 139]
[1]
  PNC IC50(μM): inactive
[3]
  ATP IC50(μM): inactive

## N=c1c2c(-c3ccccc3)cn(Cc3ccccc3)c2ncn1CCO [Compound 140]
[1]
  PNC IC50(μM): inactive
[3]
  ATP IC50(μM): inactive

## CC(C)Cn1cnc2c(c(-c3ccccc3)c(-c3ccccc3)n2Cc2ccco2)c1=N [Compound 141]
[1]
  IC50: 15800 nM
[3]
  IC50: 20.4 µM
